Source: patent US6890727B2, “Diagnostic assay for Alzheimer's disease: assessment of Aβ abnormalities” (The General Hospital Corporation, priority 1994, dated 2005)
Entries after “also recorded” stand apart in the source; their conditions may differ.

Legend:
trypsin [1] = test: Tryptic digestion of Aβ after incubation with Zn2+; type: biochemical; details: Zn^2+ 200 μM
Protocol: (§1) Tryptic Digestion of Aβ-Aβ1-40 (13.9 μg) was incubated with Zn^2+ ([…] in blocking buffer, 1 h, 37° C.) and then digested with trypsin (12 ng, 3 h, 37° C.). The reaction was stopped by adding SDS sample buffer containing phenylmethylsulfonyl fluoride (1 mM), boiling the samples (5 min), and applying the samples to Tris/Tricine gel electrophoresis and transfer. The blot was washed with EDTA, Coomassie-stained, incubated with ^65Zn^2+, individual bands were excised, assayed for ^65Zn^2+ binding, and N-terminal sequenced to confirm the identity of the digestion products. The effects of Zn^2+ (up to 100 μM in TBS) on the activity of trypsin, itself, were assayed by assay of Z-Arg-amido-4-methylcoumarin (Sigma) fluorescent cleavage product and determined to be negligible.
(FIG. 4a) depicts a blot of tryptic digests of Aβ (13.9 μg) after incubation with increasing concentrations of zinc (lane labels, in micromolar), stained by Coomassie Blue. […] The migration of the low molecular size markers (STD) are indicated (in kilodaltons) on the right. (FIG. 4b) depicts ^65Zn^2+ binding to Aβ tryptic digestion products. The blot in 4a was incubated with ^65Zn^2+, the visible bands excised, and the bound counts for each band determined.

Aβ = biological target: T1, Aβ (Homo sapiens, UniProt P05067); test: G50 gel filtration chromatography of Aβ in presence of metal ions or EDTA; details: 25 μM total metal ion
T1 construct: purchased Sigma; Bachem (results also replicated with peptide from the Keck Laboratory, Yale); host or cells: chemical synthesis
Protocol: Aβ was stored in aliquots of 0.52 mg/ml in water at −20° C., then kept at 4° C. when thawed. Reagents were mixed without vortex mixing. The incubated Aβ was directly applied to a G50 SF (Pharmacia, Uppsala, Sweden) column (Bio-Rad Econo-Column, 30×0.7 cm) pre-equilibrated with metal salt solution or EDTA (50 μM) in TBS at 20° C. and eluted at 8 ml/h (Wiz peristaltic pump, Isco, Lincoln, Nebr.). Absorbance was measured at 254 and 214 nm (Type 6 optical unit, Isco). The amount of Aβ eluting at various peaks was estimated from the area under the curve. […] Because the sample eluted in a volume of approximately 15 ml, the average concentration of the peptide on the column was 0.8 μM.
To study the effects of protein blocking upon adsorption of β to the chromatography column, a Sephadex G50 SF column which had been characterized previously for Aβ behavior was eluted with 3% bovine serum albumin (BSA) in TBS (50 ml) and equilibrated with non-BSA-containing buffer, subsequent to repeating the Aβ experiments.
The elution points of molecular mass standards and relative assignments of Aβ peak elutions are indicated. Mass standards were blue dextran (2×10^6 kDa, V0=void volume), BSA (66 kDa), carbonic anhydrase (29 kDa), cytochrome c (12.4 kDa), and aprotinin (6.5 kDa). The mass of Aβ is 4.3 kDa. […] Data for experiments performed in the presence of copper were taken from 214 nm readings and corrected for comparison.

trypsin [2] = test: Trypsin activity, Z-Arg-amido-4-methylcoumarin fluorescent cleavage product; type: biochemical; details: Zn^2+ up to 100 μM in TBS
Protocol: as §1

[3] = Clinical study of oral zinc supplementation: cognition and plasma APP levels; type: in vivo, human
Protocol: The cerebral cortex, and especially the hippocampus, contains the highest concentrations of zinc in the body (C. J. Frederickson, M. A. Klitenick, W. I. Manton, J. B. Kirkpatrick, Brain Res. 273:335 (1983)), and is exposed to extreme fluctuations of extracellular zinc levels (0.15 to 300 μM, C. J. Frederickson, Int. Rev. Neurobiol. 31:145 (1989)), e.g. during synaptic transmission (S. Y. Assaf and S.-H. Chung, Nature 308:734 (1984); G. A. Howell, M. G. Welch, C. J. Frederickson, Nature 308:736 (1984)). The cortical vasculature contains an intraluminal zinc concentration of 20 μM (I. J. T. Davies, M. Musa, T. L. Dormandy, J. Clin. Pathol. 21:359 (1968)), but the perivascular interstitial zinc concentration is 0.15/μM (C. J. Frederickson, Int. Rev. Neurobiol. 31:145 (1989)). Both sites of high zinc concentration gradients are severely and consistently affected by the pathological lesions of AD (B. T. Hyman, G. W. Van Hoesen, L. J. Kroner, A. R. Damasio, Ann. Neurol. 20:472 (1986); G. G. Glenner and C. W. Wong, Biochem. Biophys. Res. Commun. 120:885 (1984)). […] Additional evidence for altered cerebral zinc metabolism in AD include decreased temporal lobe zinc levels (D. Wenstrup, W. D. Ehmann, W. R. Markesbery, Brain Res. 533:125 (1990); J. Constantinidis, Encephale 16:231 (1990); F. M. Corrigan, G. P. Reynolds, N. I. Ward, Biometals 6:149 (1993)), elevated (80%) CSF levels (C. O. Hershey et al, Neurology 33:1350 (1983)), an increase in extracellular Zn^2+-metalloproteinase activities in AD hippocampus (J. R. Backstrom, C. A. Miller, Z. A. Tökés, J. Neurochem. 58:983 (1992)), and decreased levels of astrocytic growth-inhibitory factor, a metallothionein-like protein which chelates zinc (Y. Uchida, K. Takio, K. Titani, Y. Ihara, M. Tomonaga, Neuron 7:337 (1991)). Recently, a clinical study assayed the effects of oral zinc supplementation (6.7-fold the recommended daily allowance, a dose commonly found in nutritional supplements) upon cognition and plasma APP levels in AD subjects and age-matched controls. […]

T1 sequence (P05067 672-711): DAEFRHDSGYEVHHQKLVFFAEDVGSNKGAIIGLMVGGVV

For [Zn+2] [Zn^2+, zinc], the “inhibition of Aβ hydrolysis by trypsin” value (trypsin [1]) was “complete inhibition”, the “Aβ applied to the column that is eluted” value (Aβ) was under 20% and the “effects on the activity of trypsin itself” value (trypsin [2]) was “negligible”. The “drop in Mini-Mental State Examination scores” value ([3]; AD group, after four days of oral zinc supplementation) was 31%, the “effect on cognition in AD subjects” value ([3]; oral, 6.7-fold the recommended daily allowance) was “acute decline in cognition; also recorded: acutely adverse effect on cognition” and the “effect on age-matched control subjects” value ([3]; same conditions) was “remained unaffected”.
